Experimental findings from patent US9340590B2 (priority 2011, dated 2016) are described below.

Structures are written as SMILES. Where two headings read alike, the source gives them in different places. Positions of bridges follow the written chain, without caps; N, C: chain ends. Non-standard residues stand in square brackets, D forms with d. Residues, ends and D or L forms follow the SMILES beside them. Cha = N[C@@H](CC1CCCCC1)C(=O)O

Common to all, as to test: cell-based
One assay has as its target hNav1.5 (Homo sapiens, UniProt Q14524).
The target of a further assay is hNav1.3 (Homo sapiens, UniProt Q9NY46). Conditions: IonWorks Quattro, use-dependent protocol, hNav1.3; read-out: IWQ Use Nav1.3. In general terms: Patch clamp records ionic current or voltage across a cell membrane.
The target in the next assay is hNav1.7 (Homo sapiens, UniProt Q15858). In kind it is cell-based.
hNav1.7, sequence (Q15858 whole entry, looked up): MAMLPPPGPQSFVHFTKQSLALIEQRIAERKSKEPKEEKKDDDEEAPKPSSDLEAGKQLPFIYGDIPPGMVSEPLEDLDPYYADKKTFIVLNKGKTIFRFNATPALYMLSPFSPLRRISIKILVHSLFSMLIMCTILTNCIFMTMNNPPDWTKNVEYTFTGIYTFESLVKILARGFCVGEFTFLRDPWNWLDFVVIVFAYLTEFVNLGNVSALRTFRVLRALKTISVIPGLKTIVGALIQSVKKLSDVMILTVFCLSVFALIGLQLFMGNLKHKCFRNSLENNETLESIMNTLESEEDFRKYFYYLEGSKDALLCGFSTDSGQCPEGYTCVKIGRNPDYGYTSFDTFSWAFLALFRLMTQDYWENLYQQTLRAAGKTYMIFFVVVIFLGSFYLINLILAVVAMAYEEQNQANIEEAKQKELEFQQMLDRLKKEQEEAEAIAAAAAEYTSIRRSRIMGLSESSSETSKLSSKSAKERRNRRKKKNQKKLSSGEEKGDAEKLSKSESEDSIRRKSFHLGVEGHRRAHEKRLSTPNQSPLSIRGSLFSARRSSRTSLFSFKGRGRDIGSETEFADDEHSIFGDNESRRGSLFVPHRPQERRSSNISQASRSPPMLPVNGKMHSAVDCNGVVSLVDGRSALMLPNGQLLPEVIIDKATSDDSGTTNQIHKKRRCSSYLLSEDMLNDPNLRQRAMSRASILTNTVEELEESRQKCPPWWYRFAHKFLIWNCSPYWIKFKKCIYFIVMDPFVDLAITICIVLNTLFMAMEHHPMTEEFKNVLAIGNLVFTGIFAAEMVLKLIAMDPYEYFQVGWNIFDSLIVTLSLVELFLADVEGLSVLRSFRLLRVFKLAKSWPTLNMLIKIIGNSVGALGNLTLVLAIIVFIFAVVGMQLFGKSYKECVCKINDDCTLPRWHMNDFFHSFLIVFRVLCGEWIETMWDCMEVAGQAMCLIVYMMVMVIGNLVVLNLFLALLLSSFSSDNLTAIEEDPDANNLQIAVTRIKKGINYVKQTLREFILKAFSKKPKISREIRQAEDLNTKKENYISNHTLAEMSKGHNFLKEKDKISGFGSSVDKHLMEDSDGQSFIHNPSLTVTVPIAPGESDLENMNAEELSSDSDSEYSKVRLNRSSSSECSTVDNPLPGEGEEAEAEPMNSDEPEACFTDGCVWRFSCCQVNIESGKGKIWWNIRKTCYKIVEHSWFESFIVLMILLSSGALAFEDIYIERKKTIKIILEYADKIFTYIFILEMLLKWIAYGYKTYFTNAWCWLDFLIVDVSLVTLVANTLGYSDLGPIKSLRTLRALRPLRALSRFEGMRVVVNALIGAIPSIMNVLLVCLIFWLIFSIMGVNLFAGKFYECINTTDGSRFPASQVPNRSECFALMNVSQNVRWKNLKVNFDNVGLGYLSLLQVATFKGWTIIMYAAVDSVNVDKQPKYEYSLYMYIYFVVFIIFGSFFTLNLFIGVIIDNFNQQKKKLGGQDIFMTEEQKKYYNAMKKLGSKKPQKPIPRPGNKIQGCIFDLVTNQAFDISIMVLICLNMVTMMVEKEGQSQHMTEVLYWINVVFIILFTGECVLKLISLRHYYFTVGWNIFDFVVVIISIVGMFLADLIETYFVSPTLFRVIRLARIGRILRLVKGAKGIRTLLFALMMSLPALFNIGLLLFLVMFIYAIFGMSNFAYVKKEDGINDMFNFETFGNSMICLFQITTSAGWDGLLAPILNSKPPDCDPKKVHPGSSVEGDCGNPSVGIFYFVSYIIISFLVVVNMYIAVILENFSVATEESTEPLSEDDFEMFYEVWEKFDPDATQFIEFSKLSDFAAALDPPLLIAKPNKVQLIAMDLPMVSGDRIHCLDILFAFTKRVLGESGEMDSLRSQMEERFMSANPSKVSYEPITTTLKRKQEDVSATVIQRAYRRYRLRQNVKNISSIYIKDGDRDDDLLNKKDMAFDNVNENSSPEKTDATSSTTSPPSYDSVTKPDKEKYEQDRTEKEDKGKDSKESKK
Where [1] appears, read: IonWorks Quattro, use-dependent protocol, hNav1.5, read-out: IWQ Use Nav1.5.
Where [2] appears, read: IonWorks Quattro, use-dependent protocol, hNav1.7, read-out: IWQ Use Nav1.7.

hNav1.5, sequence (Q14524 whole entry, looked up): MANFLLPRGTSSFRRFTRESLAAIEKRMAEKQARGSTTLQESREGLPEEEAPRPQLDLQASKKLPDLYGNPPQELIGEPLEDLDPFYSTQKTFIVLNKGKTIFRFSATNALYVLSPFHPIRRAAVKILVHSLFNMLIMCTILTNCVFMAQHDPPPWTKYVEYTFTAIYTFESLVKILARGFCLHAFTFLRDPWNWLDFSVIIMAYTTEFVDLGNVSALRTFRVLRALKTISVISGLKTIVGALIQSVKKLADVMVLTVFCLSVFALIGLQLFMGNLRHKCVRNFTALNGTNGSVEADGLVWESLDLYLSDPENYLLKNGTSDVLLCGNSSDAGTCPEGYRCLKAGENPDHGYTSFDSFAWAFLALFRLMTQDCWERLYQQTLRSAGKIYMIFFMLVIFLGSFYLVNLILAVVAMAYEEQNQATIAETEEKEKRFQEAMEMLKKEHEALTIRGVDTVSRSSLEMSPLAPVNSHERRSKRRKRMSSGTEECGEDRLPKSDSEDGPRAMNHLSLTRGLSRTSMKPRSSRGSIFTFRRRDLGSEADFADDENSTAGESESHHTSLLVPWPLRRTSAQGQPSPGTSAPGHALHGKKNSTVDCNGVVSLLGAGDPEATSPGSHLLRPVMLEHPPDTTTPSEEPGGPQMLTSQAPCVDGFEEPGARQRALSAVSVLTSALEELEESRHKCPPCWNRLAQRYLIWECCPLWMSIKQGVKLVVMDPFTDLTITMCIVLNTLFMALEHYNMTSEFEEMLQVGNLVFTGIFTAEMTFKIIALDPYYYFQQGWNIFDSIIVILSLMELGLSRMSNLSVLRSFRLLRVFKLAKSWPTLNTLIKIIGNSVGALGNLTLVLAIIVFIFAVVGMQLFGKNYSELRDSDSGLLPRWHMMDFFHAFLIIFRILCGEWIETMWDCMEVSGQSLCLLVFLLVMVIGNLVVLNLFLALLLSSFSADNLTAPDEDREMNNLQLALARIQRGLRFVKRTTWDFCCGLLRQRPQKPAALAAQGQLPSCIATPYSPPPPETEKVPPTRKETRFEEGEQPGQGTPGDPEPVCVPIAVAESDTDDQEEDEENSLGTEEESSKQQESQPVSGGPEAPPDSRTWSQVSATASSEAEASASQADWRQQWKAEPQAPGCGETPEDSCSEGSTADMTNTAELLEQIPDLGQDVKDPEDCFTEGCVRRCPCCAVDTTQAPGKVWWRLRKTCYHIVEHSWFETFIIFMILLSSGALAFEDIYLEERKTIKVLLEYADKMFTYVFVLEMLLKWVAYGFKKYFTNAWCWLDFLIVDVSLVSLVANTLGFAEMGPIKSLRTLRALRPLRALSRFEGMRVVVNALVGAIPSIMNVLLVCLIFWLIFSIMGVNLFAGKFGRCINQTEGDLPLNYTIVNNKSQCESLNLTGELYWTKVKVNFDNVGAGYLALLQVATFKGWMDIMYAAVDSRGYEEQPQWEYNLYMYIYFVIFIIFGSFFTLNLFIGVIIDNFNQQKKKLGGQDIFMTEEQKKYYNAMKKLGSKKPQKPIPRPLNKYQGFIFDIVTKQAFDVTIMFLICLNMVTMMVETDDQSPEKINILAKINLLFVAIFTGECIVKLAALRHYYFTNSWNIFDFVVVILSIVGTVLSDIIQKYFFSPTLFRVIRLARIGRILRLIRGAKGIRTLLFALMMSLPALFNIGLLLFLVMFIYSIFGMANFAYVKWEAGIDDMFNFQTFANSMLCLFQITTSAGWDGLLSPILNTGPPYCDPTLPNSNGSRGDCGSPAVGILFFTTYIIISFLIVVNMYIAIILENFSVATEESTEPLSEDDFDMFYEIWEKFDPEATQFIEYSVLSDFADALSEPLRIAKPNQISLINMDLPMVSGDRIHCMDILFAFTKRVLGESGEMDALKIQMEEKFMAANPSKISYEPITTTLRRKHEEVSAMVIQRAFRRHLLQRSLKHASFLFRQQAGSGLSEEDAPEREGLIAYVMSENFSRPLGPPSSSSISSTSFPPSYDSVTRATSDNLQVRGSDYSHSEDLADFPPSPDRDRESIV

Take `CC[C@H](C)[C@@H]1NC(=O)[C@@H]2CSSC[C@@H]3NC(=O)[C@H](C(C)C)NC(=O)[C@H](CC(C)C)NC(=O)[C@H](CC(N)=O)NC(=O)[C@@H]4CCCN4C(=O)[C@H](CCCNC(=N)N)NC(=O)[C@H](CSSC[C@H](NC(=O)[C@@H](N)CC(=O)O)C(=O)N[C@@H](CC(C)C)C(=O)NCC(=O)N(C)[C@@H](CC(C)C)C(=O)N[C@@H](CC(C)C)C(=O)N[C@@H](CCCNC(=N)N)C(=O)N[C@@H](CCCCN)C(=O)N2)NC(=O)[C@H](CSSC[C@@H](C(=O)N[C@@H](CCCCN)C(=O)N[C@@H](Cc2ccc(O)cc2)C(=O)N[C@H](C(=O)N[C@@H](Cc2ccccc2)C(N)=O)C(C)C)NC(=O)[C@H](Cc2c[nH]c4ccccc24)NC(=O)[C@H](CCCCN)NC(=O)[C@H](Cc2c[nH]cn2)NC(=O)[C@H]([C@@H](C)O)NC(=O)[C@H](CCCNC(=N)N)NC(=O)[C@H](CO)NC3=O)NC(=O)[C@H](CCCCN)NC(=O)[C@H](CC(=O)O)NC(=O)[C@H](CC(N)=O)NC(=O)[C@H](CC(=O)O)NC(=O)[C@@H]2CCCN2C1=O` [compound 673]: the IC50 at hNav1.5 (setting [1]) was over 5 µM; at hNav1.3 it was 0.69 µM; at hNav1.7 (setting [2]), 0.17 µM.

Consider `CC[C@H](C)[C@@H]1NC(=O)[C@@H]2CSSC[C@@H]3NC(=O)[C@H](C(C)C)NC(=O)[C@H](CC(C)C)NC(=O)[C@H](CC(N)=O)NC(=O)[C@@H]4CCCN4C(=O)[C@H](CCCNC(=N)N)NC(=O)[C@H](CSSC[C@H](NC(=O)[C@@H](N)CC(=O)O)C(=O)N[C@@H](CC(C)C)C(=O)NCC(=O)N(C)[C@@H](Cc4ccccc4)C(=O)N[C@@H](CC(C)C)C(=O)N[C@@H](CCCNC(=N)N)C(=O)N[C@@H](CCCCN)C(=O)N2)NC(=O)[C@H](CSSC[C@@H](C(=O)N[C@@H](CCCCN)C(=O)N[C@@H](Cc2ccc(O)cc2)C(=O)N[C@H](C(=O)N[C@@H](Cc2ccccc2)C(N)=O)C(C)C)NC(=O)[C@H](Cc2c[nH]c4ccccc24)NC(=O)[C@H](CCCCN)NC(=O)[C@H](Cc2c[nH]cn2)NC(=O)[C@H]([C@@H](C)O)NC(=O)[C@H](CCCNC(=N)N)NC(=O)[C@H](CO)NC3=O)NC(=O)[C@H](CCCCN)NC(=O)[C@H](CC(=O)O)NC(=O)[C@H](CC(N)=O)NC(=O)[C@H](CC(=O)O)NC(=O)[C@@H]2CCCN2C1=O` [compound 674], for which the IC50 at hNav1.5 (setting [1]) is over 5 µM; at hNav1.3 it was 0.31 µM; at hNav1.7 (setting [2]), 0.24 µM.

Regarding `CC[C@H](C)[C@@H]1NC(=O)[C@@H]2CSSC[C@@H]3NC(=O)[C@H](C(C)C)NC(=O)[C@H](CC(C)C)NC(=O)[C@H](CC(N)=O)NC(=O)[C@@H]4CCCN4C(=O)[C@H](CCCNC(=N)N)NC(=O)[C@H](CSSC[C@H](NC(=O)[C@@H](N)CC(=O)O)C(=O)N[C@@H](CC(C)C)C(=O)NCC(=O)N[C@@H](Cc4ccccc4Cl)C(=O)N[C@@H](CC(C)C)C(=O)N[C@@H](CCCNC(=N)N)C(=O)N[C@@H](CCCCN)C(=O)N2)NC(=O)[C@H](CSSC[C@@H](C(=O)N[C@@H](CCCCN)C(=O)N[C@@H](Cc2ccc(O)cc2)C(=O)N[C@H](C(=O)N[C@@H](Cc2ccccc2)C(N)=O)C(C)C)NC(=O)[C@H](Cc2c[nH]c4ccccc24)NC(=O)[C@H](CCCCN)NC(=O)[C@H](Cc2c[nH]cn2)NC(=O)[C@H]([C@@H](C)O)NC(=O)[C@H](CCCNC(=N)N)NC(=O)[C@H](CO)NC3=O)NC(=O)[C@H](CCCCN)NC(=O)[C@H](CC(=O)O)NC(=O)[C@H](CC(N)=O)NC(=O)[C@H](CC(=O)O)NC(=O)[C@@H]2CCCN2C1=O` [compound 675], the IC50 is over 5 µM on hNav1.5 (setting [1]), 0.072 µM at hNav1.3 and 0.066 µM on hNav1.7 (setting [2]).

Take `CC[C@H](C)[C@@H]1NC(=O)[C@@H]2CSSC[C@@H]3NC(=O)[C@H](C(C)C)NC(=O)[C@H](CC(C)C)NC(=O)[C@H](CC(N)=O)NC(=O)[C@@H]4CCCN4C(=O)[C@H](CCCNC(=N)N)NC(=O)[C@H](CSSC[C@H](NC(=O)[C@@H](N)CC(=O)O)C(=O)N[C@@H](CC(C)C)C(=O)NCC(=O)N[C@@H](CCc4ccccc4)C(=O)N[C@@H](CC(C)C)C(=O)N[C@@H](CCCNC(=N)N)C(=O)N[C@@H](CCCCN)C(=O)N2)NC(=O)[C@H](CSSC[C@@H](C(=O)N[C@@H](CCCCN)C(=O)N[C@@H](Cc2ccc(O)cc2)C(=O)N[C@H](C(=O)N[C@@H](Cc2ccccc2)C(N)=O)C(C)C)NC(=O)[C@H](Cc2c[nH]c4ccccc24)NC(=O)[C@H](CCCCN)NC(=O)[C@H](Cc2c[nH]cn2)NC(=O)[C@H]([C@@H](C)O)NC(=O)[C@H](CCCNC(=N)N)NC(=O)[C@H](CO)NC3=O)NC(=O)[C@H](CCCCN)NC(=O)[C@H](CC(=O)O)NC(=O)[C@H](CC(N)=O)NC(=O)[C@H](CC(=O)O)NC(=O)[C@@H]2CCCN2C1=O` [compound 676]: the IC50 was over 5 µM at hNav1.5 (setting [1]), 0.061 µM at hNav1.3 and 0.016 µM at hNav1.7 (setting [2]).

Consider `CCCCCCCC[C@@H]1NC(=O)CNC(=O)[C@H](CC(C)C)NC(=O)[C@@H](NC(=O)[C@@H](N)CC(=O)O)CSSC[C@@H]2NC(=O)[C@@H]3CSSC[C@@H](C(=O)N[C@@H](CCCCN)C(=O)N[C@@H](Cc4ccc(O)cc4)C(=O)N[C@H](C(=O)N[C@@H](Cc4ccccc4)C(N)=O)C(C)C)NC(=O)[C@H](Cc4c[nH]c5ccccc45)NC(=O)[C@H](CCCCN)NC(=O)[C@H](Cc4c[nH]cn4)NC(=O)[C@H]([C@@H](C)O)NC(=O)[C@H](CCCNC(=N)N)NC(=O)[C@H](CO)NC(=O)[C@H](CSSC[C@H](NC(=O)[C@H](CCCCN)NC(=O)[C@H](CCCNC(=N)N)NC(=O)[C@H](CCSC)NC1=O)C(=O)N[C@@H]([C@@H](C)CC)C(=O)N1CCC[C@H]1C(=O)N[C@@H](CC(=O)O)C(=O)N[C@@H](CC(N)=O)C(=O)N[C@@H](CC(=O)O)C(=O)N[C@@H](CCCCN)C(=O)N3)NC(=O)[C@H](C(C)C)NC(=O)[C@H](CC(C)C)NC(=O)[C@H](CC(N)=O)NC(=O)[C@@H]1CCCN1C(=O)[C@H](CCCNC(=N)N)NC2=O` [compound 677], for which the IC50 on hNav1.5 (IWQ Use Nav1.5) is over 5 µM; at hNav1.3, 0.17 µM; on hNav1.7 (setting [2]), 0.17 µM.

In the case of `CC[C@H](C)[C@@H]1NC(=O)[C@@H]2CSSC[C@@H]3NC(=O)[C@H](C(C)C)NC(=O)[C@H](CC(C)C)NC(=O)[C@H](CC(N)=O)NC(=O)[C@@H]4CCCN4C(=O)[C@H](CCCNC(=N)N)NC(=O)[C@H](CSSC[C@H](NC(=O)[C@@H](N)CC(=O)O)C(=O)N[C@@H](CC(C)C)C(=O)NCC(=O)N[C@@H](C(C)(C)C)C(=O)N[C@@H](CCSC)C(=O)N[C@@H](CCCNC(=N)N)C(=O)N[C@@H](CCCCN)C(=O)N2)NC(=O)[C@H](CSSC[C@@H](C(=O)N[C@@H](CCCCN)C(=O)N[C@@H](Cc2ccc(O)cc2)C(=O)N[C@H](C(=O)N[C@@H](Cc2ccccc2)C(N)=O)C(C)C)NC(=O)[C@H](Cc2c[nH]c4ccccc24)NC(=O)[C@H](CCCCN)NC(=O)[C@H](Cc2cnc[nH]2)NC(=O)[C@H]([C@@H](C)O)NC(=O)[C@H](CCCNC(=N)N)NC(=O)[C@H](CO)NC3=O)NC(=O)[C@H](CCCCN)NC(=O)[C@H](CC(=O)O)NC(=O)[C@H](CC(N)=O)NC(=O)[C@H](CC(=O)O)NC(=O)[C@@H]2CCCN2C1=O` [compound 678], the IC50 is over 5 µM against hNav1.5 (IWQ Use Nav1.5), 1.36 µM on hNav1.3 and 0.7 µM at hNav1.7 (setting [2]).

As to `CC[C@H](C)[C@@H]1NC(=O)[C@@H]2CSSC[C@@H]3NC(=O)[C@H](C(C)C)NC(=O)[C@H](CC(C)C)NC(=O)[C@H](CC(N)=O)NC(=O)[C@@H]4CCCN4C(=O)[C@H](CCCNC(=N)N)NC(=O)[C@H](CSSC[C@H](NC(=O)[C@@H](N)CC(=O)O)C(=O)N[C@@H](CC(C)C)C(=O)NCC(=O)N[C@@H](CCC(C)C)C(=O)N[C@@H](CCSC)C(=O)N[C@@H](CCCNC(=N)N)C(=O)N[C@@H](CCCCN)C(=O)N2)NC(=O)[C@H](CSSC[C@@H](C(=O)N[C@@H](CCCCN)C(=O)N[C@@H](Cc2ccc(O)cc2)C(=O)N[C@H](C(=O)N[C@@H](Cc2ccccc2)C(N)=O)C(C)C)NC(=O)[C@H](Cc2c[nH]c4ccccc24)NC(=O)[C@H](CCCCN)NC(=O)[C@H](Cc2c[nH]cn2)NC(=O)[C@H]([C@@H](C)O)NC(=O)[C@H](CCCNC(=N)N)NC(=O)[C@H](CO)NC3=O)NC(=O)[C@H](CCCCN)NC(=O)[C@H](CC(=O)O)NC(=O)[C@H](CC(N)=O)NC(=O)[C@H](CC(=O)O)NC(=O)[C@@H]2CCCN2C1=O` [compound 679], the IC50 is over 5 µM at hNav1.5 (setting [1]), 0.24 µM at hNav1.3 and 0.086 µM on hNav1.7 (setting [2]).

As to `CC[C@H](C)[C@@H]1NC(=O)[C@@H]2CSSC[C@@H]3NC(=O)[C@H](C(C)C)NC(=O)[C@H](CC(C)C)NC(=O)[C@H](CC(N)=O)NC(=O)[C@@H]4CCCN4C(=O)[C@H](CCCNC(=N)N)NC(=O)[C@H](CSSC[C@H](NC(=O)[C@@H](N)CC(=O)O)C(=O)N[C@@H](CC(C)C)C(=O)NCC(=O)N[C@@H](CC4CCCCC4)C(=O)N[C@@H](Cc4ccccc4)C(=O)N[C@@H](CCCNC(=N)N)C(=O)N[C@@H](CCCCN)C(=O)N2)NC(=O)[C@H](CSSC[C@@H](C(=O)N[C@@H](CCCCN)C(=O)N[C@@H](Cc2ccc(O)cc2)C(=O)N[C@H](C(=O)N[C@@H](Cc2ccccc2)C(N)=O)C(C)C)NC(=O)[C@H](Cc2c[nH]c4ccccc24)NC(=O)[C@H](CCCCN)NC(=O)[C@H](Cc2c[nH]cn2)NC(=O)[C@H]([C@@H](C)O)NC(=O)[C@H](CCCNC(=N)N)NC(=O)[C@H](CO)NC3=O)NC(=O)[C@H](CCCCN)NC(=O)[C@H](CC(=O)O)NC(=O)[C@H](CC(N)=O)NC(=O)[C@H](CC(=O)O)NC(=O)[C@@H]2CCCN2C1=O` [compound 680] (H-DCLG[Cha]FRKCIPDNDKCCRPNLVCSRTHKWCKYVF-NH2; disulfide 2-17, 9-23, 16-30), the values for the IC50 at hNav1.5 (setting [1]), on hNav1.3 and at hNav1.7 were 3.5 µM, 0.032 µM and 0.019 µM, respectively.
